Like-named read-outs stand apart in the source and are kept apart here.
Assays:
[1] = test system: J774.2 murine macrophages; test: Cytotoxicity test on macrophages by flow cytometry; format: cell-based, mouse; details: J774.2 macrophages, 72 h, read-out: Toxicity IC50 Macrophage
Method: (§1) The compounds and the reference drug Glu were dissolved in DMSO (Panreac, Barcelona, Spain) and tested from 100 µM to 1 µM with 0.1% (v/v) DMSO final concentration in plates. Therefore, controls were prepared including 0.1% (v/v) of this component, as previously described.
The macrophage line J774.2 [European collection of cell cultures (ECACC) number 91051511] was derived in 1968 from a tumour in a female BALB/c mouse. Macrophages were grown in humidified 95% air, 5% CO2 atmosphere at 37 °C in Minimal Essential Medium (MEM) with 2 mM glutamine and 20% (v/v) inactivated FCS. The cytotoxicity test on macrophages was performed by Flow cytometry analysis according to a method previously described. Briefly, cells were seeded at a density of 5 × 10^4 cells/well in 24-well microplates (Nunc, Naperville, IL, USA). After 48 h incubation, the medium was removed, and fresh medium was added together with each test compound at concentrations from 100 µM to 1 µM and cultured in 500 μL/well volumes for 72 h. Thereafter, cells were recovered by centrifugation, and cell viability was determined by Flow cytometry (FACS Vantage flow cytometer, Becton Dickinson, San Jose, CA, USA) after incubating the cells with propidium iodide ([…]) and fluorescein diacetate (100 ng/mL). The percentage of viability was calculated in comparison with the control cultures. […] Each drug concentration was tested in triplicate in four separate determinations.

[2] = test system: Leishmania infantum amastigote forms; test: Amastigote test (intracellular forms in J774.2 macrophages), L. infantum; format: cell-based; details: 72 h, mean ± SD
Method: (§2) Promastigote forms of three different Leishmania spp., L. donovani (MHOM/PE/84/LC26), L. infantum (MCAN/ES/2001/UCM-10) and L. braziliensis (MHOM/BR/1975/M2904), were cultured in vitro in Medium Trypanosomes Liquid (MTL) supplemented with 10% inactivated foetal calf serum (FCS) in an air atmosphere at 28 °C, in Roux flasks (Corning, Manassas, VA, USA) with a surface area of 75 cm^2, according to [33].
as §1
(§3) J774.2 macrophages were grown and seeded at a density of 1 × 10^4 cells/well in 24-well microplates (Nunc) with rounded coverslips on the bottom and cultured for 48 h in humidified 95% air, 5% CO2 atmosphere at 37 °C in Minimal Essential Medium (MEM) with 2 mM glutamine and 20% (v/v) inactivated FCS. Adherent macrophages were infected with metacyclic promastigotes in the stationary growth phase of L. donovani, L. infantum and L. braziliensis at a multiplicity of infection (MOI) ratio of 1:10 and maintained for 24 h. Non-phagocytosed parasites were removed by washing, and after addition of the testing compounds at concentrations from 100 µM to 1 µM, cultured in 500 μL/well volumes. Control cultures were also included. After 72 h incubation, leishmanicidal activity was assessed based on the number of amastigotes in treated and untreated cultures in methanol-fixed and Giemsa-stained preparations by analyzing 500 host cells distributed in randomly chosen microscopic fields. The leishmanicidal effect was calculated as described to determine the leishmanicidal activity in the promastigote forms. Each drug concentration was tested in triplicate in four separate determinations.

[3] = test system: Leishmania donovani promastigote forms; test: Promastigote test (extracellular forms), L. donovani; format: cell-based; details: 72 h, 100 µM to 1 µM, mean ± SD
Method: as §2, §1
(§4) Promastigote forms were collected in the exponential growth phase and seeded at 1 × 10^5 parasites/mL in 24-well microplates (Nunc, Naperville, IL, USA), after adding each compound at concentrations from 100 µM to 1 µM and cultured in 500 μL/well volumes at 28 °C. After 72 h incubation, the leishmanicidal activity was assessed using a Neubauer haemocytometric chamber in comparison with the control cultures. […] Each drug concentration was tested in triplicate in four separate determinations.

[4] = test system: Leishmania infantum promastigote forms; test: Promastigote test (extracellular forms), L. infantum; format: cell-based; details: 72 h, 100 µM to 1 µM, mean ± SD of four determinations
Method: as §2, §1, §4

[5] = test system: Leishmania braziliensis amastigote forms; test: Amastigote test (intracellular forms in J774.2 macrophages), L. braziliensis; format: cell-based; details: 72 h, mean ± SD
Method: as §2, §1, §3

[6] = test system: Leishmania braziliensis promastigote forms; test: Promastigote test (extracellular forms), L. braziliensis; format: cell-based; details: 72 h, 100 µM to 1 µM, mean ± SD
Method: as §2, §1, §4

[7] = test system: Leishmania donovani amastigote forms; test: Amastigote test (intracellular forms in J774.2 macrophages), L. donovani; format: cell-based; details: 72 h, mean ± SD
Method: as §2, §1, §3

[8] = test system: L. infantum promastigotes; test: Ultrastructural alterations by TEM, L. infantum; format: cell-based, Leishmania infantum; details: 72 h at IC25 concentration
Method: (§5) Parasites were cultured at a density of 5 × 10^5 cells/mL with medium containing the tested compounds at IC25 concentrations. After 72 h at 28 °C, the cultures were processed using a technique previously described and analysed by TEM (LIBRA 120 PLUS, Zeiss, Barcelona, Spain).

[9] = test system: L. infantum promastigotes; test: Metabolite excretion by 1H-NMR, L. infantum; format: cell-based, Leishmania infantum; details: IC25 concentration, 72 h, vs untreated
Method: Trypanosomatids catabolizes glucose at a high rate, excreting into the medium partly oxidized end products such as acetate, succinate, L-alanine or L-lactate.
Cultures of L. donovani, L. infantum and L. braziliensis promastigotes were seeded in culture flaks at 5 × 10^5 cells/mL, and after the addition of the compounds at IC25 concentrations at 28 °C. Control cultures were also included. After 72 h of incubation, parasites were centrifuged at 400 × g for 10 min, and supernatants were collected in order to determine the excreted metabolites by ^1H-NMR. Chemical shifts were expressed in parts per million (ppm) using sodium 2,2-dimethyl-2-silapentane-5-sulphonate as the reference signal. The One-dimensional ^1H-NMR spectra were acquired with a VARIAN DIRECT DRIVE 400 MHz Bruker spectrometer (Rheinstetten, Germany) with an AutoX probe using D2O as solvent. The chemical shifts used to identify the respective metabolites were consistent with those described previously by some of the authors. The spectral region of 1.0–5.5 ppm was bucketed into a frequency window of 0.1 ppm. The peak (2.6 ppm) corresponding to DMSO was removed before binning, and the regions corresponding to water (4.5–5.5 ppm) and glucose (3.4–3.8 ppm) were excluded during binning to avoid artefacts due to pre-saturation. […]

[10] = test system: L. braziliensis promastigotes; test: Ultrastructural alterations by TEM, L. braziliensis; format: cell-based, Leishmania braziliensis; details: 72 h at IC25 concentration
Method: as §5

human CuZn-SOD = molecular target: T1, human CuZn-SOD (Homo sapiens, UniProt P00441); test: SOD inhibition assay, human CuZn-SOD; format: biochemical; details: assayed 100 µM to 0.1 µM; non-linear regression
T1 construct: purchased Sigma Chemical Co. (St. Louis, MO, USA)
Method: The previous extraordinary results prompted us to evaluate the inhibitory effect of 3, 5–8 and 10 on the SOD activity. […]
(§6) Parasite cells were collected in the exponential growth phase by centrifugation (400g for 10 min). The pellet obtained after centrifugation was lysated by sonication, processed according to [38] and obtained the homogenate fraction which contained the parasite Fe-SOD. The protein content was quantified using the Sigma Bradford test, which uses BSA as a standard (no trace ability was certified for the BSA standard). Superoxide dismutase activities were determined using a method previously described, which measures the reduction in nitrobluetetrazolium (NBT) by superoxide ions. Human CuZn-SOD. Substrates used in these assays were obtained from Sigma Chemical Co. (St. Louis, MO, USA). Resulting data were analysed using the Newman−Keuls test.

parasitic Fe-SOD = test: SOD inhibition assay, parasitic Fe-SOD of the Leishmania spp. taken together; format: biochemical
Method: The previous extraordinary results prompted us to evaluate the inhibitory effect of 3, 5–8 and 10 on the SOD activity. […] We used promastigotes of Leishmania spp. to obtain Fe-SOD by cellular disruption and precipitation and assayed the compounds at concentrations ranging from 100 µM to 0.1 µM in each case.
as §6

[11] = test system: Leishmania infantum infection of J774.2 macrophages; test: Infectivity assay, L. infantum; format: cell-based; details: IC25 concentration; 10-day infectivity assay
Method: (§7) After the initial in vitro studies we were interested in finding out if the six most leishmanicidal compounds could also prevent the infection of host cells. For this reason, we conducted an assay in which the J774.2 macrophages were exposed to the metacyclic promastigotes and the compound at IC25 concentration at the same time. The propagation of the parasitic infection was determined by measuring the infection rate and the average number of amastigotes per macrophage cell present during the 10-day treatment period. In addition, the endocytic (short-time of infection) and infection (long-time of infection) indexes were calculated.
(§8) Adherent macrophages were grown, seeded and infected with metacyclic promastigotes as mentioned above. The compounds at IC25 concentrations (calculated using linear regression analysis from the Kc values of the concentrations employed) were added immediately after infection and incubation was performed for 12 h at 37 °C in humidified 95% air, 5% CO2 atmosphere. in humidified 95% air, 5% CO2 atmosphere at 37 °C Non-phagocytosed parasites and drugs were removed by washing, and then the infected cultures were grown for 10 days, adding fresh culture medium every 48 h, according to [35]. Amastigotes per macrophage count was determined in methanol-fixed and Giemsa-stained preparations as mentioned above every 48 h. […]

[12] = test system: L. donovani promastigotes; test: Ultrastructural alterations by TEM, L. donovani; format: cell-based, Leishmania donovani; details: 72 h at IC25 concentration
Method: as §5

[13] = test system: Leishmania braziliensis infection of J774.2 macrophages; test: Infectivity assay, L. braziliensis; format: cell-based; details: IC25 concentration; last day of the experiment (day 10)
Method: as §7, §8

T1 sequence (P00441 whole entry): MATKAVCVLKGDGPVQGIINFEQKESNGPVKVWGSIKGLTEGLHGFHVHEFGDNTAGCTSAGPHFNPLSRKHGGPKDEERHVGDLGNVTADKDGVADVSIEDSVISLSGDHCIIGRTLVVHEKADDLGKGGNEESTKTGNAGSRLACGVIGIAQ

Row | Molecule | IC50 [1] | IC50 [2] | IC50 [3] | IC50 [4] | IC50 [5] | IC50 [6] | IC50 [7] | ultrastructural alterations of L. infantum promastigotes (TEM) [8] | ultrastructural alterations of L. braziliensis promastigotes (TEM) [10] | IC50 (human CuZn-SOD) | IC50 ([1]; Mus musculus) | IC50 ([2]; Leishmania infantum) | IC50 ([3]; Leishmania donovani) | IC50 ([4]; Leishmania infantum) | IC50 ([5]; Leishmania braziliensis) | IC50 ([6]; Leishmania braziliensis) | IC50 ([7]; Leishmania donovani) | other results
1 | CN1CCN(C)CCN(Cc2ccccn2)CC1.O=S(=O)([O-])C(F)(F)F.O=S(=O)([O-])C(F)(F)F.[Fe+2] [Compound 1] | 37.9 ± 4.2 µM | 20.5 ± 1.8 µM | 28.6 ± 5.8 µM | 18.5 ± 1.6 µM | 21.3 ± 0.9 µM | 22.3 ± 0.6 µM | 12.5 ± 2.7 µM |  |  |  |  |  |  |  |  |  |  | 
2 | CN1CCN(C)CCN(Cc2ccccn2)CC1.O=S(=O)([O-])C(F)(F)F.O=S(=O)([O-])C(F)(F)F.[Mn+2] [Compound 3] | 98.5 ± 6.3 µM | 3.7 ± 1.6 µM | 28.6 ± 3.5 µM | 8.5 ± 0.4 µM | 8.7 ± 0.6 µM | 9.3 ± 0.3 µM | 11.7 ± 1.3 µM | induced agglutination in the parasites | completely swollen, round and full of empty or lipid vacuoles | > 100 µM |  |  |  |  |  |  |  | Excretion variation ACETATE, L. infantum [9]: 18%; Excretion variation SUCCINATE, L. infantum [9]: 32%; IC50 (parasitic Fe-SOD): > 100 µM
3 | CN(Cc1ccccn1)C1CCCCC1N(C)Cc1ccccn1 (stereo not drawn) [Compound 8] |  |  |  |  |  |  |  | most destructive compounds | round and lacked in ribosomes | > 250 µM | 268 ± 16.2 µM | 22.5 ± 3.1 µM | 31.7 ± 2.4 µM | 83 ± 9.9 µM | 21.7 ± 1.4 µM | 73.8 ± 3.6 µM | 1.9 ± 0.3 µM | day at which the decline in the infection rate appeared, L. infantum [11]: 0.5 days; ultrastructural alterations of L. donovani promastigotes (TEM) [12]: expanded and disperse Golgi apparatus
4 | CN1CCN(C)CCN(Cc2ccccn2)CC1 [Compound 9] |  |  |  |  |  |  |  |  |  |  | 100 ± 4.8 µM | 33.4 ± 3.2 µM | 29.5 ± 3.6 µM | 71.7 ± 10 µM | 30.7 ± 2.5 µM | 53.2 ± 3.6 µM | 14.5 ± 2.7 µM | 
5 | c1ccc(CN2CCN(Cc3ccccn3)CCN(Cc3ccccn3)CC2)nc1 [Compound 10] |  |  |  |  |  |  |  | most destructive compounds | shrunken or dehydrated | > 300 µM | 126 ± 7.1 µM | 10.4 ± 0.1 µM | 18.6 ± 0.9 µM | 2.6 ± 0.7 µM | 11.9 ± 0.8 µM | 5.5 ± 0.8 µM | 11.6 ± 3.3 µM | ultrastructural alterations of L. donovani promastigotes (TEM) [12]: most lethal end result
6 | CN1CCN(C)CCN(CCN2CCN(C)CCN(C)CC2)CC1 [Compound 11, TACN2] |  |  |  |  |  |  |  |  |  |  | 75.1 ± 4.7 µM | 34.6 ± 2.5 µM | 29.5 ± 4.1 µM | 87.5 ± 5.1 µM | 30.4 ± 1.3 µM | 60.6 ± 3.8 µM | 19.8 ± 2.6 µM | 
7 | [Fe^II2(TACN2)(CH3CN)6](ClO4)4 [Compound 2] | 106 ± 8.8 µM | 57.5 ± 2.6 µM | 19.7 ± 1.7 µM | 52.6 ± 3.1 µM | 12.5 ± 1.5 µM | 37.2 ± 1.9 µM | 16.3 ± 2.5 µM |  |  |  |  |  |  |  |  |  |  | 
8 | meglumine antimoniate [Glucantime, reference compound] | 15.2 ± 1.3 µM | 24.2 ± 2.6 µM | 27.3 ± 4.3 µM | 18 ± 3.1 µM | 30.4 ± 6.1 µM | 25.6 ± 1.6 µM | 33.3 ± 3.7 µM |  |  |  |  |  |  |  |  |  |  | percentage of decrease in infection rate in comparison to the control, L. braziliensis [13]: 36%

Reference: paper PMC6337631, “Effective Tetradentate Compound Complexes against Leishmania spp. that Act on Critical Enzymatic Pathways of These Parasites” (Molecules, 2018)
